{"source": "paper PMC11053914", "about": "(Viruses, 2024)", "key": {"[1]": {"tested_on": "A3G (Vif-mediated degradation)", "experiment": "A3G level in the presence of Vif by Western blotting in HEK293T cells", "type": "cell-based, human", "details": "proteasome inhibitor positive control; A3G without Vif = 100%, Vif alone 31%"}, "[2]": {"tested_on": "HIV-1 NL4-3 packaged with A3G", "type": "cell-based", "details": "peptides at 25, 50 or 100 μM; DMSO group set to 100%; TZM-bl read-out"}, "CEM cells [3]": {"tested_on": "CEM cells", "experiment": "Cytotoxicity assay (CellTiter-Glo) in CEM cells", "type": "cell-based", "details": "2-fold dilutions from 100 μM, 48 h, DMSO group = 100%"}, "CEM-SS cells [4]": {"tested_on": "CEM-SS cells", "experiment": "Cytotoxicity assay (CellTiter-Glo) in CEM-SS cells", "type": "cell-based", "details": "2-fold dilutions from 100 μM, 48 h, DMSO group = 100%"}, "CEM-SS cells [5]": {"tested_on": "CEM-SS cells", "experiment": "Growth of infected CEM-SS cells, trypan blue staining", "type": "cell-based", "details": "infected cells with 50 μM peptide, trypan blue staining every other day"}, "CEM cells [6]": {"tested_on": "CEM cells", "experiment": "Growth of infected CEM cells, trypan blue staining", "type": "cell-based", "details": "infected cells with 50 μM peptide, trypan blue staining every other day"}, "[7]": {"molecular_target": "wild-type (WT) Vif displayed on yeast cells (HIV-1) (UniProt P69723)", "sequence (P69723 whole entry)": "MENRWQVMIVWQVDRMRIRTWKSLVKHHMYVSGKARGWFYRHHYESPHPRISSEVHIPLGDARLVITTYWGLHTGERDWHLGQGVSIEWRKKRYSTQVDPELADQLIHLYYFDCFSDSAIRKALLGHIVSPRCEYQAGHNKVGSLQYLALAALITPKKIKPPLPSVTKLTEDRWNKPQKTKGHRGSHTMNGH", "experiment": "flow cytometry on cells"}}, "note": "Peptide text beside a SMILES is read from it. * marks the point of attachment. Cbz = O=C(OCc1ccccc1)*", "data": [{"compound": "CC(C)C[C@@H](C=O)NC(=O)[C@H](CC(C)C)NC(=O)[C@H](CC(C)C)NC(=O)OCc1ccccc1", "note": "[MG132] (Cbz-Leu-Leu-Leu-aldehyde)", "values": [{"measurement": "A3G level in the presence of Vif", "setting": "[1]", "result": 73, "unit": "%"}]}, {"compound": "CC[C@H](C)[C@H](NC(=O)[C@H](CCSC)NC(=O)[C@@H](NC(=O)[C@H](CCC(=O)O)NC(C)=O)C(C)C)C(=O)N[C@H](C(=O)N[C@@H](Cc1c[nH]c2ccccc12)C(=O)N[C@@H](CCC(=O)O)C(=O)N[C@H](C(=O)N[C@@H](CC(=O)O)C(=O)N[C@@H](CCCNC(=N)N)C(=O)N[C@@H](CCSC)C(=O)N[C@@H](CCCNC(=N)N)C(=O)N[C@H](C(=O)N[C@H](C(=O)N[C@H](C(N)=O)[C@@H](C)O)[C@@H](C)O)[C@@H](C)CC)C(C)C)C(C)C", "note": "[VMP-6] (Ac-EVMIVWEVDRMRITT-NH2)", "values": [{"measurement": "effect on infectivity of the A3G-containing viruses", "setting": "[2]", "result": "did not affect the viral infectivity"}]}, {"compound": "CC[C@H](C)[C@H](NC(=O)[C@H](C)NC(=O)[C@H](CC(C)C)NC(=O)CNC(C)=O)C(=O)N[C@H](C(=O)N[C@H](C(=O)N[C@@H](Cc1ccc(O)cc1)C(=O)N[C@@H](Cc1c[nH]c2ccccc12)C(=O)NCC(=O)N[C@@H](CC(C)C)C(=O)N[C@@H](Cc1c[nH]cn1)C(=O)N[C@H](C(=O)NCC(=O)N[C@@H](CCC(=O)O)C(=O)N[C@@H](CCCNC(=N)N)C(=O)NCC(N)=O)[C@@H](C)O)[C@@H](C)O)[C@@H](C)O", "note": "[VMP-63]", "values": [{"measurement": "cytotoxicity on CEM cells", "setting": "CEM cells [3]", "result": "almost no cytotoxicity"}, {"measurement": "cytotoxicity on CEM-SS cells", "setting": "CEM-SS cells [4]", "result": "almost no cytotoxicity"}, {"measurement": "growth of CEM-SS cells", "setting": "CEM-SS cells [5]", "result": "not affected"}, {"measurement": "growth of CEM cells", "setting": "CEM cells [6]", "result": "not affected"}]}, {"compound": "CC(=O)N[C@@H](Cc1c[nH]c2ccccc12)C(=O)NCC(=O)N[C@@H](CC(C)C)C(=O)N[C@@H](Cc1c[nH]cn1)C(=O)N[C@H](C(=O)NCC(=O)N[C@@H](CCC(=O)O)C(=O)N[C@@H](CCCNC(=N)N)C(=O)NCC(N)=O)[C@@H](C)O", "note": "[VMP-70] (Ac-WGLHTGERG-NH2)", "values": [{"measurement": "effect on infectivity of the A3G-containing viruses", "setting": "[2]", "result": "did not affect the viral infectivity"}]}, {"compound": "CC[C@H](C)[C@H](NC(=O)[C@H](C)NC(=O)[C@H](CO)NC(=O)[C@H](CC(N)=O)NC(=O)[C@H](CO)NC(=O)[C@H](Cc1ccccc1)NC(=O)[C@H](CS)NC(=O)[C@H](CC(=O)O)NC(=O)[C@H](Cc1ccccc1)NC(=O)[C@H](Cc1ccc(O)cc1)NC(=O)[C@H](Cc1ccc(O)cc1)NC(=O)[C@H](CC(C)C)NC(=O)[C@H](CCCNC(=N)N)NC(C)=O)C(N)=O", "note": "[VMP-108]", "values": [{"measurement": "cytotoxicity on CEM cells", "setting": "CEM cells [3]", "result": "almost no cytotoxicity"}, {"measurement": "cytotoxicity on CEM-SS cells", "setting": "CEM-SS cells [4]", "result": "almost no cytotoxicity"}, {"measurement": "growth of CEM-SS cells", "setting": "CEM-SS cells [5]", "result": "not affected"}, {"measurement": "growth of CEM cells", "setting": "CEM cells [6]", "result": "not affected"}]}, {"compound": "CC(=O)N[C@@H](Cc1ccc(O)cc1)C(=O)N[C@@H](Cc1ccccc1)C(=O)N[C@@H](CC(=O)O)C(=O)N[C@@H](CS)C(=O)N[C@@H](Cc1ccccc1)C(=O)N[C@@H](CO)C(=O)N[C@@H](CC(N)=O)C(=O)N[C@@H](CO)C(=O)N[C@@H](C)C(=O)N[C@H](C(=O)N[C@@H](CCCNC(=N)N)C(=O)N[C@@H](CCCCN)C(=O)N[C@H](C(N)=O)C(C)C)[C@@H](C)O", "note": "[VMP-111] (Ac-YFDCFSNSATRKV-NH2)", "values": [{"measurement": "effect on infectivity of the A3G-containing viruses", "setting": "[2]", "result": "did not affect the viral infectivity"}]}, {"compound": "CBFβ protein, purified (from UniProt Q13951 1-182) (natural protein)", "values": [{"measurement": "FITC-positive cells", "setting": "[7]", "result": 0.076, "unit": "%"}]}]}
